Source: ChEMBL document CHEMBL1144158, “Synthesis and biological properties of 2-methylene-19-nor-25-dehydro-1alpha-hydroxyvitamin D(3)-26,23-lactones--weak agonists” (Bioorg Med Chem, 2008)
The source made the active and inactive calls. No cut-off for these calls is given here.

Key:
Vitamin D3 receptor [1] = biological target: T1, Vitamin D3 receptor (Rattus norvegicus, UniProt P13053); assay: Displacement of [3H]1-alpha,25-(OH)2D3 from rat recombinant full length VDR
T1 sequence (P13053 whole entry): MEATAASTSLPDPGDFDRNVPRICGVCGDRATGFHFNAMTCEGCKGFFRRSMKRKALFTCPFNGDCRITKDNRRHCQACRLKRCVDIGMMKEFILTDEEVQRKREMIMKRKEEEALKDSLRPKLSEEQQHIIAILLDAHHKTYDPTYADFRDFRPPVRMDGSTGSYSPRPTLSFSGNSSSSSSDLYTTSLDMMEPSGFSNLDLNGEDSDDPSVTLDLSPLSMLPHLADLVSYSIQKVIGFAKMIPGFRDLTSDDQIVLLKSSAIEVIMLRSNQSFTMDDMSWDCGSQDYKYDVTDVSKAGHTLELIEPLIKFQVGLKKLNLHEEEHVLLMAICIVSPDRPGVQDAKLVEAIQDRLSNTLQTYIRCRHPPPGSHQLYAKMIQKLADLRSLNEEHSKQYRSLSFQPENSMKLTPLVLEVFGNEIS

HL-60 = assay: Induction of differentiation of human HL-60 cells promyelocytes to monocytes after 4 days by NBT reduction assay; format: functional, cell-based; conditions: HL-60, 96 h
Vitamin D3 receptor [2] = biological target: T1, Vitamin D3 receptor; assay: Activity at rat recombinant full length VDR expressed in rat ROS 17/2.8 cells transfected with 24-hydroxylase gene promoter assessed as transcriptional activation after 16 hrs by luciferase reporter gene assay
Rattus norvegicus [3] = assay: Effect on calcium transport in vitamin D-deficient Sprague-Dawley rat intestine assessed as ratio of serosal to mucosal calcium level at 260 pmol, ip administered 4 consecutive daily doses assessed after 24 hrs of last dose by gut sac assay; format: functional
Rattus norvegicus [4] = assay: Effect on calcium transport in vitamin D-deficient Sprague-Dawley rat intestine assessed as ratio of serosal to mucosal calcium level at 2340 pmol, ip administered 4 consecutive daily doses assessed after 24 hrs of last dose by gut sac assay; format: functional
Rattus norvegicus [5] = assay: Effect on calcium transport in vitamin D-deficient Sprague-Dawley rat intestine assessed as ratio of serosal to mucosal calcium level at 320 pmol, ip administered 4 consecutive daily doses assessed after 24 hrs of last dose by gut sac assay; format: functional
Rattus norvegicus [6] = assay: Effect on calcium transport in vitamin D-deficient Sprague-Dawley rat intestine assessed as ratio of serosal to mucosal calcium level at 960 pmol, ip administered 4 consecutive daily doses assessed after 24 hrs of last dose by gut sac assay; format: functional
Rattus norvegicus [7] = assay: Effect on calcium transport in vitamin D-deficient Sprague-Dawley rat intestine assessed as ratio of serosal to mucosal calcium level at 7800 pmol, ip administered 4 consecutive daily doses assessed after 24 hrs of last dose by gut sac assay; format: functional
Rattus norvegicus [8] = assay: Effect on bone calcium mobilization in vitamin D-deficient Sprague-Dawley rat assessed as serum calcium level at 7800 pmol, ip administered 4 consecutive daily doses assessed after 24 hrs of last dose by spectrometry; format: functional
Rattus norvegicus [9] = assay: Effect on bone calcium mobilization in vitamin D-deficient Sprague-Dawley rat assessed as serum calcium level at 320 pmol, ip administered 4 consecutive daily doses assessed after 24 hrs of last dose by spectrometry; format: functional
Rattus norvegicus [10] = assay: Effect on bone calcium mobilization in vitamin D-deficient Sprague-Dawley rat assessed as serum calcium level at 960 pmol, ip administered 4 consecutive daily doses assessed after 24 hrs of last dose by spectrometry; format: functional
[11] = biological target: T2, Vitamin D3 receptor (Rattus norvegicus) (UniProt P13053); assay: Antagonist activity at rat recombinant VDR expressed in rat ROS 17/2.8 cells transfected with 24-hydroxylase gene promoter assessed as 1-alpha,25-(OH)2D3-induced transcriptional activation at 0.001 uM to 0.1 uM after 16 hrs by luciferase reporter gene assay; format: functional, cell-based
T2 sequence (whole entry): T1 sequence (P13053 whole entry)

Rattus norvegicus [12] = assay: Effect on bone calcium mobilization in vitamin D-deficient Sprague-Dawley rat assessed as serum calcium level at 260 pmol, ip administered 4 consecutive daily doses assessed after 24 hrs of last dose by spectrometry; format: functional
Rattus norvegicus [13] = assay: Effect on bone calcium mobilization in vitamin D-deficient Sprague-Dawley rat assessed as serum calcium level at 2340 pmol, ip administered 4 consecutive daily doses assessed after 24 hrs of last dose by spectrometry; format: functional

| SMILES | Ki (Vitamin D3 receptor [1]) | EC50 (HL-60) | EC50 (Vitamin D3 receptor [2]) | Ratio (Rattus norvegicus [3]) | Ratio (Rattus norvegicus [4]) | Ratio (Rattus norvegicus [5]) | Ratio (Rattus norvegicus [6]) | Ratio (Rattus norvegicus [7]) | Ratio (Rattus norvegicus [8]) | Ratio (Rattus norvegicus [9]) | Ratio (Rattus norvegicus [10]) | Activity [11] | Ratio (Rattus norvegicus [12]) | Ratio (Rattus norvegicus [13]) |
| --- | --- | --- | --- | --- | --- | --- | --- | --- | --- | --- | --- | --- | --- | --- |
| C=C1C[C@@H](C[C@@H](C)[C@H]2CC[C@H]3/C(=C/C=C4C[C@@H](O)C(=C)[C@H](O)C4)CCC[C@]23C)OC1=O | 2 nM | 2 nM | 100 nM | 5.6 | 9.6 | 5.1 | 5.9 | 11 | 4 | 3.7 | 3.8 | – | – | – |
| C=C1[C@H](O)CC(=C/C=C2\CCC[C@]3(C)[C@@H]([C@H](C)/C=C/[C@@H](O)C4(C(=O)OCCCC)CC4)CC[C@@H]23)C[C@H]1O | – | – | – | – | – | – | – | – | – | – | – | Active | – | – |
| C=C1C[C@H](C[C@@H](C)[C@H]2CC[C@H]3/C(=C/C=C4C[C@@H](O)C(=C)[C@H](O)C4)CCC[C@]23C)OC1=O | 1 nM | 4 nM | 2 nM | 7.6 | 9.5 | – | – | – | – | – | – | – | 4.4 | 4.2 |
